Assay results: PMC6070976, “Interaction of Ochratoxin A and Its Thermal Degradation Product 2′R-Ochratoxin A with Human Serum Albumin” (Toxins, 2018)

Columns and labels:
[1] = molecular target: T1, human serum albumin (HSA) (Homo sapiens, UniProt P02768); assay: fluorescence quenching/enhancement and anisotropy titrations; also equilibrium dialysis, HSA affinity chromatography, CD; type: binding; conditions: read-out: logK (Hyperquad, Figure 3) (converted)
T1 construct: gene ALB

[2] = molecular target: T1, human serum albumin (HSA); assay: equilibrium dialysis; also fluorescence titrations and anisotropy, HSA affinity chromatography, CD; type: binding; conditions: read-out: % bound

T1 sequence (P02768 25-609): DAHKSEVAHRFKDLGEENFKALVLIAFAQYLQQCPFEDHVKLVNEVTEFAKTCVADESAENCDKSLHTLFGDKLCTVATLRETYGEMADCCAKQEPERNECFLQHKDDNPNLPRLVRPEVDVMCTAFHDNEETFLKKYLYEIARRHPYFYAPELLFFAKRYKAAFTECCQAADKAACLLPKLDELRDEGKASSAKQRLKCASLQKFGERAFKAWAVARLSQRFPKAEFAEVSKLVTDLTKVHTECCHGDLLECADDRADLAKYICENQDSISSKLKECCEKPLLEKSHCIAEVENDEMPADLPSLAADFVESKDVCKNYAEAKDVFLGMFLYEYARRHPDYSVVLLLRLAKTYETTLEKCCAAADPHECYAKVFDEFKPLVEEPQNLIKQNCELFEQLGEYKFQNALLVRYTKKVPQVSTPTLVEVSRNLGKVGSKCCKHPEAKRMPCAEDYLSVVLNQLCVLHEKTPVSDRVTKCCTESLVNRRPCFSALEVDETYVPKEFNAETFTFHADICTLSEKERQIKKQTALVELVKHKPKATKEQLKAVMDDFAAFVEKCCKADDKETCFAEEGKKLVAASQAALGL

| SMILES | Kd [1] [µM] | fraction unbound [2] |
| --- | --- | --- |
| C[C@@H]1Cc2c(Cl)cc(C(=O)N[C@H](Cc3ccccc3)C(=O)O)c(O)c2C(=O)O1 [2′R-OTA, 2′R-Ochratoxin A] | 0.589 |  |
| C[C@@H]1Cc2c(Cl)cc(C(=O)N[C@@H](Cc3ccccc3)C(=O)O)c(O)c2C(=O)O1 [OTA, Ochratoxin A] |  | < 0.004 |
